Experimental data: BindingDB's records for doi:10.1016/j.bmcl.2012.12.095 (Astrazeneca, 2013)

Test: Antagonist activity at CCR1 receptor in human THP1 cells assessed as inhibition of MIP-1alpha-induced chemotaxis after 2 hrs by fluorescence assay

IC50: 68 nM
Compound: CC(=O)Nc1ccc(O)cc1OC[C@@H](N)CN1CCC2(CC1)Cc1ccccc1O2
